{"source": "paper PMC10671074", "about": "“Tumor Regression upon Intratumoral and Subcutaneous Dosing of the STING Agonist ALG-031048 in Mouse Efficacy Models” (International Journal of Molecular Sciences, 2023)", "key": {"ENPP1": {"molecular_target": "T1, ENPP1 (Homo sapiens, UniProt P22413)", "T1 construct": "purchased R&D Systems", "T1 sequence (P22413 1-925)": "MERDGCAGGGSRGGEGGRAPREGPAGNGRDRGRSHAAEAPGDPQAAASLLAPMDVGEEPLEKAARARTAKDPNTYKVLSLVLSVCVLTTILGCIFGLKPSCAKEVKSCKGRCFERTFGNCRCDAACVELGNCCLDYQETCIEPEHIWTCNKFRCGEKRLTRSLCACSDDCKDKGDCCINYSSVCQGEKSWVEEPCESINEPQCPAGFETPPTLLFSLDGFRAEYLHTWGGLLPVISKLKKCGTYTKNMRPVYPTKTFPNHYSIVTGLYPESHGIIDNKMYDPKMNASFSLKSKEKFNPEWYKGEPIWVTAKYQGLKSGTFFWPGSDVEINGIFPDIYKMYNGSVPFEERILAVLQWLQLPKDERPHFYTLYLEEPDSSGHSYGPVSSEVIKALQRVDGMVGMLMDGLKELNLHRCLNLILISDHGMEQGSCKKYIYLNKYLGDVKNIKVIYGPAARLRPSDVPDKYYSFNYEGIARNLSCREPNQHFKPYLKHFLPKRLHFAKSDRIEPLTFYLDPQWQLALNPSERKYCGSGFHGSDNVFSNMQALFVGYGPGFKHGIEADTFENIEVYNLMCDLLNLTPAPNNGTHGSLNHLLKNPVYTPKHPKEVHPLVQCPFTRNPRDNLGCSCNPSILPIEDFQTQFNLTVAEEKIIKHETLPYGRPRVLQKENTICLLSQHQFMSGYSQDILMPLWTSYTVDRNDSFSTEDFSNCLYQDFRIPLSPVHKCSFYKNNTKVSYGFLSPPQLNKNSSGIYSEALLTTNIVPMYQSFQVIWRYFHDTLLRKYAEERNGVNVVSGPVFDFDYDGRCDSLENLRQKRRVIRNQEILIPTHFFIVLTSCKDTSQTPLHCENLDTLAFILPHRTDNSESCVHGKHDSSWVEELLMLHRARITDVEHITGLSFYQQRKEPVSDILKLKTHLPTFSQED", "assay": "ENPP1 stability assay", "format": "in vitro ADME", "conditions": "pH 9.5; 100 μM STING agonist, 26.5 nM recombinant human ENPP1, 37 °C, up to 2 h; read-out: ENPP1 t½"}, "Plasma stability, mouse": {"assay": "Plasma stability, mouse", "format": "in vitro ADME", "conditions": "37 °C, read-out: Plasma t½, Mouse", "procedure": "(§1) The plasma stability assay was carried out on 96-well microtiter plates. The test compounds at 5 µM and the reference compound (propantheline) at 1 µM final concentration were incubated separately at 37 °C with mouse or human plasma for 0, 30, 60, and 240 min. At the end of each incubation time point, 300 μL of the quenching solution (50% acetonitrile, 50% methanol, and 0.05% formic acid) containing the internal standard was added to each well. The incubation plates were sealed, vortexed, and centrifuged at 4 °C for 15 min at 4000 rpm. The supernatant was transferred to fresh plates for LC/MS/MS analysis of the test compounds. The peak area ratios of each test compound over the internal standard were plotted against incubation time, and the t½ was calculated from the curve assuming first-order kinetics."}, "Plasma stability, human": {"assay": "Plasma stability, human", "format": "in vitro ADME", "conditions": "37 °C, read-out: Plasma t½, Human", "procedure": "as §1"}, "[1]": {"assay": "Liver microsomal stability, mouse", "format": "in vitro ADME", "conditions": "pH 7.4, 0.5 mg/mL mouse liver microsomes, 37 °C, read-out: Liver Microsome t½, Mouse", "procedure": "The liver microsomal stability assay was carried out in 96-well microtiter plates. The test compounds at 5 µM and the reference compound (verapamil) at 1 µM final concentration were incubated separately at 37 °C with 0.5 mg/mL liver microsomes, with or without 1 mM NADPH in 100 mM potassium phosphate buffer, pH 7.4 with 3.3 mM MgCl2. […] At each of the time points (0, 15, 30, and 60 min), the enzymatic reaction was terminated with the addition of 150 μL of quenching solution (100% acetonitrile, 0.1% formic acid, and the internal standard), and subsequently the mixtures were vortexed vigorously for 20 min and centrifuged at 4000 rpm at 10 °C. The supernatants (80 µL) were transferred to a clean 96-well plate and analyzed via LC/MS/MS. The peak area ratios of each test compound over the internal standard were plotted against incubation time, and the t½ was calculated from the curve assuming first-order kinetics."}, "[2]": {"tested_on": "EMT-6 murine mammary carcinoma", "assay": "Re-challenge with EMT-6 of mice with complete CT26 tumor regression", "format": "in vivo, mouse", "conditions": "Figure 5D; previously 100 μg IT × 3; EMT-6 right flank", "procedure": "Ten naïve, age-matched female BALB/c mice were used as controls. […] Tumor growth was measured as described above."}, "subcutaneous CT26 tumors": {"tested_on": "subcutaneous CT26 tumors", "conditions": "for Delay of tumor growth compared with vehicle / Delayed Response (TV > 10 and <2000 mm^3) / Treatment Failure (TV > 2000 mm^3) / Complete Response (TV < 10 mm^3) / Median Time to Endpoint: 3 × q3d; for Median Time to Endpoint: vehicle 17.0", "method": "Each mouse was inoculated subcutaneously in the right flank with 3 × 10^5 CT26 cells (in 0.1 mL PBS) for tumor development.\nPBS was used as the vehicle control. […] Vehicles and test compounds were administered IT q3d × 3 in a volume of 0.05 mL. SC administration was performed between the shoulder blades at a dosing volume of 10 mL/kg. Tumors were measured twice a week in two dimensions using calipers, and volume was calculated using Formula (1):Tumor Volume (mm^3) = 0.5 (w^2 × l)(1)\nHere, w = width and l = length, in mm, of a tumor.\nTumor weight was estimated with the assumption that 1 mg is equivalent to 1 mm^3 of tumor volume.\nAnimals were euthanized when (1) their tumor reached the endpoint volume of 2000 mm^3, (2) their body weight loss exceeded 30%, or (3) on the last day of the study, whichever came first. The TTE for analysis was calculated for each mouse by the following Equation (2):TTE = (log10 (endpoint volume) − b)/m(2)\nTTE is expressed in days, endpoint volume is expressed in mm^3, b is the intercept, and m is the slope of the line obtained via linear regression of a log-transformed tumor growth data set. […] Animals were weighed on Days 1–5, then twice weekly for the duration of the study."}, "STING R232": {"molecular_target": "STING R232 (Homo sapiens, UniProt Q86WV6, H232R)", "sequence (Q86WV6 whole entry H232R)": "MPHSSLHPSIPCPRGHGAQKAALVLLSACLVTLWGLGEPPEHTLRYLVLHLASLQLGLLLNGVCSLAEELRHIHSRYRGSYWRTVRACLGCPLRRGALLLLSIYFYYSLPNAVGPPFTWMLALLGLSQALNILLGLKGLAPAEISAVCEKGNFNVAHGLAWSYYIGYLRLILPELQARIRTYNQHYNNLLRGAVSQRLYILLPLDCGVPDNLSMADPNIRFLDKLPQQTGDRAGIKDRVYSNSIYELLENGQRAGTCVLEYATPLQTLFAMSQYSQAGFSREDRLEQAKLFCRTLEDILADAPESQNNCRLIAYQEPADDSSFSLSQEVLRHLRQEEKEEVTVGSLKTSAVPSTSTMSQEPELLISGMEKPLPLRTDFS", "assay": "HEK 293 STING R232 IFN-β reporter assay", "format": "cell-based", "parameters": "host or cells: 293T-Dual hSTING-R232 (HEK 293T derived)", "conditions": "HEK 293 STING R232 cells, digitonin dosing buffer 30 min, 20 h; mean±standard deviation; read-out: Reporter Cell Assay EC50, STING R232 IFN-β", "procedure": "Assays were set up after allowing cells to adhere for 48 h. Compounds dissolved in water were serially diluted in dosing buffer containing 10 µg/mL of digitonin (MP Biomedicals, Solon, OH, USA). Media were aspirated from the cells, and 50 µL of buffer with compound was added in triplicate. […] An aliquot of 100 µL of CellTiter-Glo® (Promega, Madison, WI, USA) was added to the original plate still containing the cells, and luminescence was determined to measure viability. All readouts were measured on an Envision plate reader from Perkin Elmer. Data were analyzed using GraphPad™ Prism’s version 8.0 [Agonist] vs. response—variable slope (four parameters) model."}, "[3]": {"conditions": "Table 2 study, 25 μg IT, n = 10"}, "[4]": {"conditions": "Table 2 study, 100 μg IT, n = 10"}, "[5]": {"conditions": "Table 3/4 study, 25 μg IT, n = 10"}}, "note": "Read-outs that look alike come from different tables or passages of the source. Marks after values point to notes of the source that are not given here.", "data": [{"smiles": "CO[C@H]1[C@H]2OP(=O)(O)OC[C@@]34C[C@@H]3[C@@H](n3cnc5c(N)ncnc53)[C@H](O)[C@@H]4O[P@](=O)(S)OC[C@H]1O[C@H]2n1cnc2c(=O)[nH]c(N)nc21", "note": "[ALG-031048]", "values": [{"measurement": "half-life at 100 μM", "setting": "ENPP1", "value": "> 2", "unit": "h"}, {"measurement": "half-life at 5 µM", "setting": "Plasma stability, mouse", "value": "> 1", "unit": "h"}, {"measurement": "half-life at 5 µM", "setting": "Plasma stability, human", "value": "> 1", "unit": "h"}, {"measurement": "half-life at 5 µM", "setting": "[1]", "value": "> 8", "unit": "h"}, {"measurement": "EMT-6 tumor growth after re-challenge", "setting": "[2]", "value": "formed in these animals with kinetics comparable to those of naïve animals"}, {"measurement": "Delay of tumor growth compared with vehicle", "setting": "subcutaneous CT26 tumors; CT26, 1 mg/kg SC", "value": 4.0, "unit": "days"}, {"measurement": "Delay of tumor growth compared with vehicle", "setting": "subcutaneous CT26 tumors; CT26, 4 mg/kg SC", "value": 21.0, "unit": "days"}, {"measurement": "Time mice remained tumor-free after the last dose", "setting": "subcutaneous CT26 tumors; CT26, longest observation in any study", "value": "approximately 2.5 months"}, {"measurement": "Complete tumor suppression, initial CT26 tumor", "setting": "subcutaneous CT26 tumors; Figure 5B study, three IT doses of 100 μg", "value": 100, "unit": "%"}, {"measurement": "Delayed Response (TV > 10 and <2000 mm^3)", "setting": "subcutaneous CT26 tumors; [3]", "value": 10, "unit": "% ^c"}, {"measurement": "Treatment Failure (TV > 2000 mm^3)", "setting": "subcutaneous CT26 tumors; [3]", "value": 44, "unit": "% ^c"}, {"measurement": "Delayed Response (TV > 10 and <2000 mm^3)", "setting": "subcutaneous CT26 tumors; [4]", "value": 0, "unit": "%"}, {"measurement": "Treatment Failure (TV > 2000 mm^3)", "setting": "subcutaneous CT26 tumors; [4]", "value": 10, "unit": "%"}, {"measurement": "Complete Response (TV < 10 mm^3)", "setting": "subcutaneous CT26 tumors; [5]", "value": 0, "unit": "%"}, {"measurement": "Delayed Response (TV > 10 and <2000 mm^3)", "setting": "subcutaneous CT26 tumors; [5]", "value": 0, "unit": "%"}, {"measurement": "Treatment Failure (TV > 2000 mm^3)", "setting": "subcutaneous CT26 tumors; [5]", "value": 100, "unit": "%"}, {"measurement": "TV at end of study of animal with delayed response", "setting": "subcutaneous CT26 tumors; Table 4 study, 100 μg IT", "value": 18, "unit": "mm^3"}, {"measurement": "Delayed Response (TV > 10 and <2000 mm^3)", "setting": "subcutaneous CT26 tumors; Table 4 study, 100 μg IT", "value": 10, "unit": "% ^b"}, {"measurement": "Treatment Failure (TV > 2000 mm^3)", "setting": "subcutaneous CT26 tumors; Table 4 study, 100 μg IT", "value": 50, "unit": "%"}, {"measurement": "Complete Response (TV < 10 mm^3)", "setting": "subcutaneous CT26 tumors; Table 4 study, 100 μg IT, n = 10", "value": 40, "unit": "%"}, {"measurement": "Median Time to Endpoint", "setting": "subcutaneous CT26 tumors; Table 4 study, 100 μg IT", "value": 38.0, "unit": "days"}, {"measurement": "Delayed Response (TV > 10 and <2000 mm^3)", "setting": "subcutaneous CT26 tumors; Table 4 study, 1 mg/kg SC", "value": 0, "unit": "%"}, {"measurement": "Treatment Failure (TV > 2000 mm^3)", "setting": "subcutaneous CT26 tumors; Table 4 study, 1 mg/kg SC", "value": 100, "unit": "%"}, {"measurement": "Complete Response (TV < 10 mm^3)", "setting": "subcutaneous CT26 tumors; Table 4 study, 1 mg/kg SC, n = 10", "value": 0, "unit": "%"}, {"measurement": "Median Time to Endpoint", "setting": "subcutaneous CT26 tumors; Table 4 study, 1 mg/kg SC", "value": 21.0, "unit": "days"}, {"measurement": "TV at end of study of animal with delayed response", "setting": "subcutaneous CT26 tumors; Table 4 study, 4 mg/kg SC", "value": 1568, "unit": "mm^3"}, {"measurement": "Delayed Response (TV > 10 and <2000 mm^3)", "setting": "subcutaneous CT26 tumors; Table 4 study, 4 mg/kg SC", "value": 10, "unit": "% ^a"}, {"measurement": "Treatment Failure (TV > 2000 mm^3)", "setting": "subcutaneous CT26 tumors; Table 4 study, 4 mg/kg SC", "value": 80, "unit": "%"}, {"measurement": "Complete Response (TV < 10 mm^3)", "setting": "subcutaneous CT26 tumors; Table 4 study, 4 mg/kg SC, n = 10", "value": 10, "unit": "%"}, {"measurement": "Median Time to Endpoint", "setting": "subcutaneous CT26 tumors; Table 4 study, 4 mg/kg SC", "value": 35.0, "unit": "days"}, {"measurement": "EC50", "setting": "STING R232", "value": 132, "unit": "nM"}]}]}
